These results are taken from ChEMBL document CHEMBL1201862, “PubChem BioAssay data set” (2004).

“And” between values parts separate entries of the source, which are not always exact repeats. Equal entries are not always repeated.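 Following 48 hours of exposure in 96-well plates, responses at five concentrations were used to interpolate endpoints linearly. The concentration for 50% growth inhibition is given as GI50.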 The source made the active and inactive calls. No stated cut-off is given here; in the data, active = GI50 up to about 1.1 µM and inactive = higher.

Among the test systems are 786-0; A498; CCRF-CEM; DU-145; HOP-62; HT-29; K562; KM12; MDA-N; Malme-3M; OVCAR-4; OVCAR-5; PC-3; RXF 393; SF-268; SK-MEL-28; SK-MEL-2; SK-OV-3; UO-31.
Common to all, as to assay: DTP human tumour cell line panel, 48 h

The GI50 is the concentration that inhibits growth by half. For `N#C/C(C(=S)NCc1ccccc1)=C(/N)N1CCCC1`, the GI50 was > 100 µM (inactive) in the test with 786-0; 35.3 µM (inactive) in the test on A498; > 100 µM (inactive) in the test on CCRF-CEM; > 100 µM (inactive) in the test with DU-145; > 100 µM (inactive) in the test on HOP-62; > 100 µM (inactive) in the test on HT-29. The GI50 in the test on K562, with KM12, in the test on MDA-N, in the test with Malme-3M, with OVCAR-4 and in the test with OVCAR-5 was > 100 µM (inactive) in each case. The GI50 in the test on PC-3 is > 100 µM (inactive); in the test with RXF 393, 74.3 µM (inactive); in the test with SF-268, > 100 µM (inactive); in the test with SK-MEL-28, > 100 µM (inactive); in the test on SK-MEL-2, > 100 µM (inactive); in the test with SK-OV-3, > 100 µM (inactive). The GI50 with UO-31 is > 100 µM (inactive).
As to `COC(=O)CC(C)(N[S+]([O-])c1ccc(C)cc1)c1ccccc1` (centres undefined), the GI50 in the test on 786-0, in the test with A498, with DU-145, in the test with HOP-62, in the test on HT-29 and with K562 was > 100 µM (inactive) in each case. The GI50 with KM12, in the test with MDA-N, in the test with Malme-3M, with OVCAR-4, in the test on OVCAR-5 and in the test on PC-3 was > 100 µM (inactive) each time. For the same compound, the GI50 in the test on RXF 393, with SF-268, in the test with SK-MEL-28, in the test with SK-MEL-2, in the test with SK-OV-3 and in the test with UO-31 was > 100 µM (inactive) throughout.
With `NC(=O)NC(=O)c1cnccn1`, the GI50 in the test on 786-0, in the test with A498, with CCRF-CEM, with DU-145, in the test with HOP-62 and with K562 was > 100 µM (inactive) each time. Besides, the GI50 in the test with KM12, with MDA-N, in the test on Malme-3M, with OVCAR-4, in the test on OVCAR-5 and in the test on PC-3 was > 100 µM (inactive) each time. Besides, the GI50 with RXF 393, in the test with SF-268, with SK-MEL-28, with SK-MEL-2, with SK-OV-3 and with UO-31 was > 100 µM (inactive) in each case.
For the compound `Cc1cn(C2C=CC(COP(=O)(OCC3=CC(=O)c4ccccc4C3=O)N(C)CCCCCl)O2)c(=O)[nH]c1=O` (centres undefined), the GI50 in the test on 786-0 was 12.7 µM (inactive); in the test on CCRF-CEM it was 3.12 µM (inactive); with DU-145, 1.57 µM (inactive); with HOP-62, 11.7 µM (inactive); in the test on HT-29, 12.7 µM (inactive); in the test on K562, 5.81 µM (inactive). Further, the GI50 was 10.6 µM (inactive) in the test on KM12; 2.21 µM (inactive) in the test on MDA-N; 0.363 µM (active) with Malme-3M; 11.1 µM (inactive) in the test with OVCAR-4; 12.1 µM (inactive) in the test on OVCAR-5; 12.1 µM (inactive) with PC-3. Further, the GI50 with RXF 393 is 2.5 µM (inactive); with SF-268 it was 12.1 µM (inactive); with SK-MEL-28, 5.15 µM (inactive); in the test with SK-MEL-2, 13.2 µM (inactive); in the test with SK-OV-3 it was 11 µM (inactive); in the test with UO-31 it was 12.8 µM (inactive).
`COC1(OC)C=CC2C1C1C=CC2C1(OC)OC` (centres undefined): the GI50 in the test on 786-0, with A498, in the test on CCRF-CEM, with DU-145, with HOP-62 and in the test with HT-29 was > 100 µM (inactive) in each case. The GI50 in the test on K562, in the test on KM12, with Malme-3M, in the test with OVCAR-4, in the test with OVCAR-5 and with PC-3 was > 100 µM (inactive) throughout. The GI50 in the test with RXF 393, in the test on SF-268, in the test with SK-MEL-28, in the test on SK-MEL-2, with SK-OV-3 and in the test on UO-31 was > 100 µM (inactive) each time.
On to `NC(=S)NNC(=S)NC(=O)c1ccco1`, for which the GI50 in the test with 786-0, in the test with CCRF-CEM, in the test with DU-145, in the test with HOP-62, with HT-29 and in the test with K562 was > 10 µM (inactive) each time. The GI50 in the test with KM12, in the test with MDA-N, in the test on Malme-3M, in the test with OVCAR-4, in the test with OVCAR-5 and with RXF 393 was > 10 µM (inactive) throughout. For the same compound, the GI50 in the test with SF-268, in the test on SK-MEL-28, in the test on SK-MEL-2, with SK-OV-3 and with UO-31 was > 10 µM (inactive) each time.
Take `C[C@H]1CCC/C=C/[C@@H]2C[C@H](O)C[C@H]2[C@H](O)/C=C/C(=O)O1` [BREFELDIN A]: the 50% growth inhibitory concentration (GI50) is < 10 nM (active) and 13.2 nM (active) in the test on 786-0; < 10 nM (active) and 17.4 nM (active) in the test with A498; < 10 nM (active) and 15.8 nM (active) in the test with HT-29; 36.6 nM (active) and 71.5 nM (active) in the test on K562; 10.1 nM (active) and 10.2 nM (active) in the test on KM12; 40.6 nM (active) and 42.4 nM (active) with MDA-N. Also, the 50% growth inhibitory concentration (GI50) was 18.1 nM (active) and 11.3 nM (active) in the test on Malme-3M; < 14.7 nM (active) and 24.7 nM (active) in the test on OVCAR-4; < 24 nM (active) and 44 nM (active) with OVCAR-5; 14.4 nM (active) and 13.4 nM (active) in the test with RXF 393; 19.2 nM (active) and < 19.9 nM (active) in the test with SK-MEL-28; 47.4 nM (active) and 30.6 nM (active) in the test with SK-MEL-2. Moreover, the GI50 in the test with SK-OV-3 was 60.1 nM (active) and 44.1 nM (active); in the test on UO-31 it was 23.2 nM (active) and < 18.3 nM (active).
As for `O=C(O)CCC1C(=O)C2CCN1CC2` (centres undefined), the GI50 with 786-0 was > 100 µM (inactive); in the test on A498, 97.7 µM (inactive); in the test with CCRF-CEM it was > 100 µM (inactive); in the test on DU-145, > 100 µM (inactive); in the test on HOP-62 it was > 100 µM (inactive); with HT-29, > 100 µM (inactive). In addition, the GI50 in the test with K562, with KM12, in the test on MDA-N, with Malme-3M, in the test on OVCAR-4 and in the test with OVCAR-5 was > 100 µM (inactive) each time. In addition, the GI50 with PC-3, in the test on RXF 393, with SF-268, with SK-MEL-28, with SK-MEL-2 and in the test with SK-OV-3 was > 100 µM (inactive) throughout. Moreover, in the test with UO-31, the GI50 is > 100 µM (inactive).
As for `O=C1CC2c3ccccc3CCC2c2ccccc21` (centres undefined), the GI50 with 786-0 was 31.3 µM (inactive); with A498, 1 µM (active); in the test with DU-145, 57.8 µM (inactive); in the test with HOP-62, 25.9 µM (inactive); in the test with HT-29, 13.3 µM (inactive); in the test on K562, 6.32 µM (inactive). Moreover, the GI50 in the test with KM12 is 9.35 µM (inactive); with MDA-N it was 6.64 µM (inactive); in the test on OVCAR-4, > 10 µM (inactive); with OVCAR-5, 24.4 µM (inactive); in the test with PC-3, 26.2 µM (inactive); with SF-268 it was 27.5 µM (inactive). In addition, the GI50 in the test on SK-MEL-28 was 36.1 µM (inactive); in the test with SK-MEL-2 it was 16.8 µM (inactive); in the test with SK-OV-3, 51.2 µM (inactive); in the test with UO-31, 15.2 µM (inactive).
Take `CCCCCN(CCCCC)C(=O)[C@H](CCC(=O)OCc1ccccc1)NC(=O)c1cc2ccccc2[nH]1`: the GI50 in the test with 786-0, with A498, with CCRF-CEM, with HOP-62, with HT-29 and in the test with K562 was > 100 µM (inactive) in each case. For the same compound, the GI50 in the test on KM12, in the test with Malme-3M, in the test on OVCAR-4, in the test with OVCAR-5, with RXF 393 and in the test on SF-268 was > 100 µM (inactive) each time. Further, the GI50 in the test with SK-MEL-28, in the test with SK-MEL-2, with SK-OV-3 and with UO-31 was > 100 µM (inactive) in each case.
Consider `CN(/N=C/c1ccnc2ccccc12)c1c([N+](=O)[O-])cc([N+](=O)[O-])cc1[N+](=O)[O-]`, for which the GI50 was > 100 µM (inactive) in the test on 786-0; 48.8 µM (inactive) in the test with A498; 18.3 µM (inactive) with CCRF-CEM; 88.3 µM (inactive) in the test with HOP-62; > 100 µM (inactive) in the test with HT-29; 30.7 µM (inactive) in the test on K562. Also, the GI50 in the test with KM12 was > 100 µM (inactive); in the test on Malme-3M, 31.5 µM (inactive); in the test with OVCAR-4 it was 53.7 µM (inactive); in the test with OVCAR-5 it was > 100 µM (inactive); in the test with RXF 393, 39.2 µM (inactive); in the test on SF-268 it was 61.2 µM (inactive). The GI50 in the test on SK-MEL-28 is 60.5 µM (inactive); in the test on SK-MEL-2, 24.4 µM (inactive); in the test with SK-OV-3, > 100 µM (inactive); with UO-31 it was 26.7 µM (inactive).
